From ChEMBL document CHEMBL1909046, “DrugMatrix in vitro pharmacology data”

Columns and labels:
B2 bradykinin receptor = molecular target: T1, B2 bradykinin receptor (Homo sapiens, UniProt P30411); format: cell membranes, Membrane; conditions: chem-1; further: in other assays of this panel Not Active means under 50% inhibition at 10 µM
T1 sequence (P30411 whole entry): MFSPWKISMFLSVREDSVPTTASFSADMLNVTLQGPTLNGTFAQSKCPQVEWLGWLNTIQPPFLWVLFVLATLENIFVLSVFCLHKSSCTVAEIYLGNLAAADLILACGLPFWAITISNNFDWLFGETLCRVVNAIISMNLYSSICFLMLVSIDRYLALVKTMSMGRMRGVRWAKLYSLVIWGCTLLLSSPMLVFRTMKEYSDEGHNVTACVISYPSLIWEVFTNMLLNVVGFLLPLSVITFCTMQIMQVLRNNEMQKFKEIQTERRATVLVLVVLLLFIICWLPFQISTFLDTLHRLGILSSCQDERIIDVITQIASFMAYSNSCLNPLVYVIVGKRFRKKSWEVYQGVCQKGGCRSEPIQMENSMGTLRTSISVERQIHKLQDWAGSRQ

[1] = molecular target: T2, 5-hydroxytryptamine receptor 2C (Homo sapiens, UniProt P28335); experiment: DRUGMATRIX: Serotonin (5-Hydroxytryptamine) 5-HT2C radioligand binding (ligand: [3H] Mesulergine); format: cell membranes, CHO-K1, Membrane; conditions: cho-k1; Not Active = under 50% inhibition at 10 µM
T2 sequence (P28335 whole entry): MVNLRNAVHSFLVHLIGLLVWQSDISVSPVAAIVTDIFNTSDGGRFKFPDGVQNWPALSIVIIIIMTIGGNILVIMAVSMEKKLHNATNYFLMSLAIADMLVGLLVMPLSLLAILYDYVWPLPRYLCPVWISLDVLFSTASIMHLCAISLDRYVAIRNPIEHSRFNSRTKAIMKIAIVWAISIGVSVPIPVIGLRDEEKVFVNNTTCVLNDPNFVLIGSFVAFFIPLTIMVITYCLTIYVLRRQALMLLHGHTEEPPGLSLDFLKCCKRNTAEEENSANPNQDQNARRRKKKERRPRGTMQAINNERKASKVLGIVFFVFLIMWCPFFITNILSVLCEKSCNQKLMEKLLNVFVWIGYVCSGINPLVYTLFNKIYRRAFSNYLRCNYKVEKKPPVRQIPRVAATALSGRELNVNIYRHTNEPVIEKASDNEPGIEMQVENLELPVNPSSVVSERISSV

[2] = DRUGMATRIX: Calcium Channel Type L, Phenylalkylamine radioligand binding (ligand: [3H] (-)-Desmethoxyverapamil (D-888)); format: cell membranes, Rattus norvegicus, Wistar, Brain, Membrane; conditions: Not Active = under 50% inhibition at 10 µM
[3] = molecular target: T3, C-C chemokine receptor type 4 (Homo sapiens, UniProt P51679); format: cell membranes, Chem-1, Membrane; conditions: chem-1; further: in other assays of this panel Not Active means under 50% inhibition at 10 µM
T3 sequence (P51679 whole entry): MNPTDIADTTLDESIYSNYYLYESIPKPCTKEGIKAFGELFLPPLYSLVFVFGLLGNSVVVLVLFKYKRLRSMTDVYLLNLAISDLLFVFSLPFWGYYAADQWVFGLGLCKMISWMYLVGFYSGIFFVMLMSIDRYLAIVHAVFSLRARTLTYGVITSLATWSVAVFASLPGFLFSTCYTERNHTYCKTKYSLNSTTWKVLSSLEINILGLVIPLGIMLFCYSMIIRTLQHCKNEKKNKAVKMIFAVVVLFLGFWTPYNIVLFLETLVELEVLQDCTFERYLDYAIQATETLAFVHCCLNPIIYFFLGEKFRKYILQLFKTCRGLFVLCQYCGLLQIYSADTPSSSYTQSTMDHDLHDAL

[4] = molecular target: T4, C-X-C chemokine receptor type 1 (Homo sapiens, UniProt P25024); further: in other assays of this panel Not Active means under 50% inhibition at 10 µM
T4 sequence (P25024 whole entry): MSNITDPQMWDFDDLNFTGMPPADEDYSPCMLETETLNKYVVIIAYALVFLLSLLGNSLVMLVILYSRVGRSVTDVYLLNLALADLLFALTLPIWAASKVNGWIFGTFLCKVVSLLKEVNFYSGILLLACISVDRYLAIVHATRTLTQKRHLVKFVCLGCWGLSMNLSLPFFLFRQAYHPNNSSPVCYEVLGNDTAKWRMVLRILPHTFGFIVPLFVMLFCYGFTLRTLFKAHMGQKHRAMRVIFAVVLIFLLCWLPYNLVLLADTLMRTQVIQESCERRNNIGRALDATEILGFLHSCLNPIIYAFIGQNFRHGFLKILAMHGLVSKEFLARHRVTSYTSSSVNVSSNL

Leukotriene C4 synthase = molecular target: T5, Leukotriene C4 synthase (Cavia porcellus, UniProt A6XA80); experiment: biochemical; format: tissue-based, Lung;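 further: enzyme inhibition assay of leukotriene C4 synthase, using LTA4 as the substrate; in other assays of this panel Not Active means under 50% inhibition at 10 µM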
T5 sequence (A6XA80 whole entry): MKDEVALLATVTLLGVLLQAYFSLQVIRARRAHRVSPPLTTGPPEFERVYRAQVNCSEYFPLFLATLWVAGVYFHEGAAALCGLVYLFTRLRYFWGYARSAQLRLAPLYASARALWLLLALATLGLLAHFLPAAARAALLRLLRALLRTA

Interstitial collagenase = molecular target: T6, Interstitial collagenase (Homo sapiens, UniProt P03956); experiment: biochemical; format: tissue-based, Rheumatoid synovial fibroblasts
T6 sequence (P03956 whole entry): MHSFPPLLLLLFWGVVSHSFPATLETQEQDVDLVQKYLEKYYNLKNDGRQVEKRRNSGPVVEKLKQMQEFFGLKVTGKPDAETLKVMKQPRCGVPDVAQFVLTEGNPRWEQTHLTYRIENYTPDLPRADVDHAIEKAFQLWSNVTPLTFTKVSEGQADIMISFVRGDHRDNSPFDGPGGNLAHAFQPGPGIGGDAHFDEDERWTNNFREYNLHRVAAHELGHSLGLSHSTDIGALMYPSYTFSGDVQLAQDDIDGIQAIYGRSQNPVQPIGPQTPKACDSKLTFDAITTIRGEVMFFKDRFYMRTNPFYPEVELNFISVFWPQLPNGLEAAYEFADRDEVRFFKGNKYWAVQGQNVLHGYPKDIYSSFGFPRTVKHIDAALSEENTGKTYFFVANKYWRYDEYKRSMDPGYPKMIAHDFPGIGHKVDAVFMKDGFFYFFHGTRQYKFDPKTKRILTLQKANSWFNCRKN

C=C(Cl)Cl [1,1-DICHLOROETHENE]
Not Active: IC50 (B2 bradykinin receptor) | IC50 [1] | IC50 [2] | Ki [2] | IC50 [3] | IC50 [4] | IC50 (Leukotriene C4 synthase) | IC50 (Interstitial collagenase)

CC(=O)[C@]1(O)Cc2c(O)c3c(c(O)c2[C@@H](O[C@H]2C[C@H](N)[C@H](O)[C@H](C)O2)C1)C(=O)c1ccccc1C3=O [IDARUBICIN]
Not Active: IC50 (B2 bradykinin receptor) | IC50 [1] | IC50 [2] | Ki [2] | IC50 [3] | IC50 [4] | IC50 (Leukotriene C4 synthase) | IC50 (Interstitial collagenase)

CC12CCC(CC1)C(C)(C)O2 [EUCALYPTOL]
Not Active: IC50 (B2 bradykinin receptor) | IC50 [1] | IC50 [2] | Ki [2] | IC50 [3] | IC50 [4] | IC50 (Leukotriene C4 synthase) | IC50 (Interstitial collagenase)

C[N+](C)(C)CCOC(N)=O.[Cl-] [CARBACHOL]
Not Active: IC50 (B2 bradykinin receptor) | IC50 [1] | IC50 [2] | Ki [2] | IC50 [3] | IC50 [4] | IC50 (Leukotriene C4 synthase) | IC50 (Interstitial collagenase)

NS(=O)(=O)c1cc(C(=O)O)c(NCc2ccco2)cc1Cl [FUROSEMIDE]
Not Active: IC50 (B2 bradykinin receptor) | IC50 [1] | IC50 [2] | Ki [2] | IC50 [3] | IC50 [4] | IC50 (Leukotriene C4 synthase) | IC50 (Interstitial collagenase)

CC(C)NCC(O)COc1ccc(CC(N)=O)cc1 (stereo unspecified) [ATENOLOL]
Not Active: IC50 (B2 bradykinin receptor) | IC50 [1] | IC50 [2] | Ki [2] | IC50 [3] | IC50 [4] | IC50 (Leukotriene C4 synthase) | IC50 (Interstitial collagenase)

Cc1c(N)nc([C@H](CC(N)=O)NC[C@H](N)C(N)=O)nc1C(=O)N[C@H](C(=O)N[C@H](C)[C@@H](O)[C@H](C)C(=O)N[C@H](C(=O)NCCc1nc(-c2nc(C(=O)NCCC[S+](C)C)cs2)cs1)[C@@H](C)O)[C@@H](O[C@@H]1O[C@@H](CO)[C@@H](O)[C@H](O)[C@@H]1O[C@H]1O[C@H](CO)[C@@H](O)[C@H](OC(N)=O)[C@@H]1O)c1c[nH]cn1.[Br-] [BLEOMYCIN A2]
Not Active: IC50 (B2 bradykinin receptor) | IC50 [1] | IC50 [2] | Ki [2] | IC50 [3] | IC50 [4] | IC50 (Leukotriene C4 synthase) | IC50 (Interstitial collagenase)

NC(N)=Nc1nc(CSCCC(N)=NS(N)(=O)=O)cs1 [FAMOTIDINE]
Not Active: IC50 (B2 bradykinin receptor) | IC50 [1] | IC50 [2] | Ki [2] | IC50 [3] | IC50 [4] | IC50 (Leukotriene C4 synthase) | IC50 (Interstitial collagenase)

c1ccc2sc(SSc3nc4ccccc4s3)nc2c1 [BENZOTHIAZYL DISULFIDE]
Not Active: IC50 (B2 bradykinin receptor) | IC50 [1] | IC50 [2] | Ki [2] | IC50 [3] | IC50 [4] | IC50 (Leukotriene C4 synthase) | IC50 (Interstitial collagenase)

Nc1ccc(Cc2ccc(N)cc2)cc1
Not Active: IC50 (B2 bradykinin receptor) | IC50 [1] | IC50 [2] | Ki [2] | IC50 [3] | IC50 [4] | IC50 (Leukotriene C4 synthase) | IC50 (Interstitial collagenase)

OC[C@H]1O[C@@H]2O[C@H]3[C@H](O)[C@@H](O)[C@@H](O[C@H]4[C@H](O)[C@@H](O)[C@@H](O[C@H]5[C@H](O)[C@@H](O)[C@@H](O[C@H]6[C@H](O)[C@@H](O)[C@@H](O[C@H]7[C@H](O)[C@@H](O)[C@@H](O[C@H]8[C@H](O)[C@@H](O)[C@@H](O[C@H]1[C@H](O)[C@H]2O)O[C@@H]8CO)O[C@@H]7CO)O[C@@H]6CO)O[C@@H]5CO)O[C@@H]4CO)O[C@@H]3CO [BETADEX]
Not Active: IC50 (B2 bradykinin receptor) | IC50 [1] | IC50 [2] | Ki [2] | IC50 [3] | IC50 [4] | IC50 (Leukotriene C4 synthase) | IC50 (Interstitial collagenase)

O=C(O)c1ccccc1 [BENZOIC ACID]
Not Active: IC50 (B2 bradykinin receptor) | IC50 [1] | IC50 [2] | Ki [2] | IC50 [3] | IC50 [4] | IC50 (Leukotriene C4 synthase) | IC50 (Interstitial collagenase)
